Consider two substances from ChEMBL document CHEMBL5154808, “Novel β-Hairpin Antimicrobial Peptides Containing the β-Turn Sequence of -RRRF- Having High Cell Selectivity and Low Incidence of Drug Resistance” (J Med Chem, 2022).

Data set [1] has as its system Staphylococcus aureus. The data set can be described thus: Antibacterial activity against Staphylococcus aureus ATCC 25923 infected in BALB/c mouse assessed as reduction in bacterial load in lung at 5 to 10 mg/kg, ip measured after 4 to 12 hrs (reference value: 5.6 x 10^6 CFU/g). Format: functional. To be noted: dose 5-10 mg/kg, time 4-12 hrs.
In data set [2] the test system is Escherichia coli. The experiment in a line: Antimicrobial activity against Escherichia coli ATCC 25922 assessed as reduction of bacterial growth at 2 times MIC incubated for 18 hrs in presence of chymotrypsin by CLSI protocol based broth microdilution method. It counts as functional, organism-based.
Data set [3] can be described thus: Acute toxicity in Kunming mouse assessed as hepatocyte hyperemia in liver at 62 mg/kg, ip by H and E staining based analysis. It counts as organism-based.
For data set [4], the system named is Escherichia coli. The data set can be described thus: Antimicrobial activity against Escherichia coli ATCC 25922 assessed as reduction of bacterial growth incubated for 18 hrs by CLSI protocol based broth microdilution method. Format: functional. (Dilution methods test growth across graded concentrations, often in twofold steps.)
Data set [5] can be described thus: Acute toxicity in Kunming mouse assessed as swelling in liver at 62 mg/kg, ip by H and E staining based analysis. It counts as organism-based. The note with it: in vivo.
Data set [6] deals with Escherichia coli. The data set can be described thus: Antimicrobial activity against Escherichia coli ATCC 25922 assessed as reduction in bacterial growth incubated for 18 hrs in presence of 1 mM MgCl2 by CLSI protocol based broth microdilution method (reference value: 8 uM). It counts as functional.
Data set [7] relates to Staphylococcus aureus. The experiment in a line: Antimicrobial activity against Staphylococcus aureus ATCC 25923 assessed as reduction in bacterial growth incubated for 18 hrs in presence of 150 mM NaCl by CLSI protocol based broth microdilution method (reference value: 8 uM). It counts as functional.
Data set [8] has as its system Staphylococcus aureus. The experiment in a line: Antimicrobial activity against Staphylococcus aureus ATCC 25923 assessed as breakage of cell membrane measured after 2 hrs by SEM analysis. It counts as functional, organism-based.
The test system of data set [9] is Escherichia coli. The data set can be described thus: Synergistic antibacterial activity against rifampicin-resistant Escherichia coli ATCC 25922 assessed as fractional inhibitory concentration index incubated for 18 hrs in presence of rifampicin by checker board assay. Format: functional.
The nature of data set [10]: Stability in mouse serum assessed as drug degradation by measuring retention time at 10 mM measured upto 360 mins by RP-HPLC analysis. To be noted: 6 h, 10000 µM. It counts as ADME, cell-free.
In data set [11] the test system is Escherichia coli. The data set can be described thus: Antimicrobial activity against Escherichia coli ATCC 25922 assessed as reduction in bacterial growth incubated for 18 hrs in presence of 10% serum by CLSI protocol based broth microdilution method (reference value: 8 uM). It counts as functional.
Data set [12] deals with Cell membrane. The data set can be described thus: Induction of outer membrane permeabilization in Escherichia coli ATCC 25922 by NPN fluorescent dye based assay. It counts as subcellular. To be noted: DDE = dose-dependent effect.
The subject of data set [13] is Staphylococcus aureus. The experiment in a line: Antimicrobial activity against Staphylococcus aureus ATCC 25923 assessed as reduction in bacterial growth incubated for 18 hrs in presence of 4 uM FeCl3 by CLSI protocol based broth microdilution method (reference value: 8 uM). Format: functional.
For data set [14], the system named is Enterococcus faecalis. The data set can be described thus: Antimicrobial activity against Enterococcus faecalis ATCC 29212 assessed as reduction of bacterial growth incubated for 18 hrs by CLSI protocol based broth microdilution method. Format: functional.
Data set [15] has as its system Staphylococcus aureus. The experiment in a line: Antibacterial activity against Staphylococcus aureus ATCC 25923 infected BALB/c mouse assessed as reduction in alveolar constriction at 5 to 10 mg/kg, ip measured after 24 hrs by hematoxylin and eosin staining based assay. To be noted: dose 5-10 mg/kg. Format: functional, organism-based.
Data set [16] concerns Staphylococcus aureus. The experiment in a line: Antimicrobial activity against Staphylococcus aureus ATCC 25923 assessed as reduction in bacterial growth incubated for 18 hrs in presence of 10% serum by CLSI protocol based broth microdilution method (reference value: 8 uM). Format: functional.
Data set [17] deals with Escherichia coli. The data set can be described thus: Synergistic antibacterial activity against kanamycin-resisitant Escherichia coli ATCC 25922 assessed as fractional inhibitory concentration index incubated for 18 hrs in presence of kanamycin by checker board assay. Format: functional.
The test system of data set [18] is Escherichia coli. The experiment in a line: Synergistic antibacterial activity against meropenem-resistant Escherichia coli ATCC 25922 assessed as fractional inhibitory concentration index incubated for 18 hrs in presence of meropenem by checker board assay. It counts as functional.
The subject of data set [19] is Escherichia coli. The experiment in a line: Antimicrobial activity against Escherichia coli ATCC 25922 assessed as reduction of bacterial growth at 2 times MIC incubated for 18 hrs in presence of trypsin by CLSI protocol based broth microdilution method. It counts as functional, organism-based.
For data set [20], the system named is Staphylococcus aureus. The experiment in a line: Antimicrobial activity against rifampicin-resistant Staphylococcus aureus ATCC 25923. Format: functional.
Data set [21] concerns Staphylococcus aureus. The experiment in a line: Antimicrobial activity against Staphylococcus aureus ATCC 25923 assessed as fold change in MICincubated for 18 hrs in presence of 150 mM NaCl by CLSI protocol based broth microdilution method relative to control. Format: functional.
Data set [22] relates to Escherichia coli. The experiment in a line: Antimicrobial activity against Escherichia coli ATCC 25922 assessed as fold change in MIC incubated for 18 hrs in presence of 10% serum by CLSI protocol based broth microdilution method relative to control. Format: functional.
Data set [23] can be described thus: Acute toxicity in Kunming mouse assessed as congestion in lungs at 77 mg/kg, ip by H and E staining based analysis. It counts as organism-based. To be noted: in vivo.
The subject of data set [24] is Staphylococcus aureus. The experiment in a line: Antimicrobial activity against Staphylococcus aureus ATCC 25923 assessed as reduction in bacterial growth incubated for 18 hrs in presence of 150 mM NaCl by CLSI protocol based broth microdilution method (reference value: 4 uM). Format: functional.
The test system of data set [25] is Escherichia coli. The data set can be described thus: Antimicrobial activity against Escherichia coli ATCC 25922 assessed as reduction in bacterial growth incubated for 18 hrs in presence of 150 mM NaCl by CLSI protocol based broth microdilution method (reference value: 4 uM). Format: functional.
Data set [26] relates to Staphylococcus aureus. The experiment in a line: Antimicrobial activity against Staphylococcus aureus ATCC 25923 assessed as reduction in bacterial growth incubated for 18 hrs in presence of 4 uM FeCl3 by CLSI protocol based broth microdilution method (reference value: 4 uM). It counts as functional.
Data set [27] concerns Staphylococcus aureus. The experiment in a line: Synergistic antibacterial activity against meropenem-resistant Staphylococcus aureus ATCC 25923 assessed as fractional inhibitory concentration index incubated for 18 hrs in presence of meropenem by checker board assay. It counts as functional.
The test system of data set [28] is Staphylococcus aureus. The data set can be described thus: Antimicrobial activity against Staphylococcus aureus ATCC 25923 assessed as reduction in bacterial growth incubated for 18 hrs in presence of 4.5 mM KCl by CLSI protocol based broth microdilution method (reference value: 4 uM). It counts as functional.
Data set [29] has as its system Staphylococcus aureus. The experiment in a line: Synergistic antibacterial activity against Staphylococcus aureus ATCC 25923 assessed as fractional inhibitory concentration index incubated for 18 hrs in presence of polymyxin B by checker board assay. It counts as functional.
Data set [30] has as its system Escherichia coli. The experiment in a line: Antimicrobial activity against Escherichia coli ATCC 25922 assessed as reduction in bacterial growth incubated for 18 hrs in presence of 4.5 mM KCl by CLSI protocol based broth microdilution method (reference value: 4 uM). It counts as functional.
Data set [31] has as its system Escherichia coli. The data set can be described thus: Antimicrobial activity against Escherichia coli ATCC 25922 assessed as reduction in bacterial growth incubated for 18 hrs in presence of 4 uM FeCl3 by CLSI protocol based broth microdilution method (reference value: 4 uM). Format: functional.
The subject of data set [32] is Escherichia coli. The data set can be described thus: Antimicrobial activity against Escherichia coli ATCC 25922 assessed as reduction in bacterial growth incubated for 18 hrs in presence of 1 mM MgCl2 by CLSI protocol based broth microdilution method (reference value: 4 uM). It counts as functional.
For data set [33], the system named is Staphylococcus aureus. The data set can be described thus: Synergistic antibacterial activity against rifampicin-resistant Staphylococcus aureus ATCC 25923 assessed as fractional inhibitory concentration index incubated for 18 hrs in presence of rifampicin by checker board assay. It counts as functional.
Data set [34] has as its system Escherichia coli. The data set can be described thus: Antimicrobial activity against Escherichia coli ATCC 25922 assessed as reduction in bacterial growth incubated for 18 hrs in presence of 10% serum by CLSI protocol based broth microdilution method (reference value: 4 uM). Format: functional.

Activity calls are given as the source filed them.

On to H-KWKWKRRRFKWKWK-NH2, for which the Activity is 0 CFU/g in data set [1], “Toxic” in [3], “Toxic” in data set [5] and “Dde” in [12]. In addition, the outcome in data set [2], in data set [8], in [15] and in data set [19] was Active. For the same substance, the MIC (usually the smallest concentration in the dilution series that meets the test's criterion for growth inhibition) worked out at 8 µM in [4]; 8 µM in data set [6]; 16 µM in [7]; 8 µM in [11]; 8 µM in data set [13]; 16 µM in data set [14]. The MIC turned out to be 16 µM in [16] and 4 µM in data set [20]. The results for the “fractional inhibitory concentration index (FICI)” value in [9], in [17] and in data set [18] were 0.5625, 0.3125 and 1.25, respectively. Moreover, the Retention_time in data set [10] came to 11.505 min. The entries for the “fold change (FC)” value in data set [21] and in [22] were 2 and 1, respectively.

H-RIRIRRRRFRIRIR-NH2: the Activity in data set [1] was 0 CFU/g; in [23] it was “Toxic”; in data set [12], “Dde”. Also, the result in data set [2], in data set [8] and in data set [15] was Active. For the same substance, the minimal inhibitory concentration (MIC) in data set [4] amounted to 4 µM; in data set [24], 8 µM; in data set [25], 16 µM; in data set [26], 4 µM; in data set [28], 4 µM; in data set [14], 8 µM. Moreover, the MIC in data set [20] was 4 µM; in [30], 8 µM; in data set [31] it was 8 µM; in [32] it was 4 µM; in [34] it was 4 µM. Besides, in data set [10], the Retention_time turned out to be 10.623 min. In addition, the “fractional inhibitory concentration index (FICI)” value was found to be 0.375 in data set [27], 0.375 in data set [29], 0.75 in data set [18] and 0.375 in data set [33]. Moreover, the figures for the “fold change (FC)” value in [21] and in [22] were 2 and 1, respectively.
